Source: patent publication US8710180B2, “VEGF-specific capture agents, compositions, and methods of using and making” (Indi Molecular, Inc., priority 2011, dated 2014)
Where “and” joins values, the source holds several entries; their conditions need not be identical. Equal entries are not always repeated. Where two headings read alike, the source gives them in different places. Where a SMILES comes first, the peptide text is derived from it. Bridges are numbered along the chain shown (N, C = ends). Roman numbers before positions name the chains, in order. Triazole bridges read from a SMILES are 1,4-linked. [ ]: non-standard residue; d: D form. Lys(N3) = [N-]=[N+]=NCCCC[C@H](N)C(=O)O; Az4 = C-terminal azide group; dPra = C#CC[C@@H](N)C(=O)O; code X = not defined here

Experiments:
[1] = system: Human umbilical vein endothelial cells (HUVECs); test: inhibition of HUVEC proliferation; type: cell-based; conditions: 48 h, read-out: IC50 (antagonist)
Experimental: HUVECs were cultured in M199 medium (pH 7.4) in 5% CO2 at 37° C. for 18 hours. Test compound and/or vehicle were incubated with cells (1.1×10^5/mL) in the presence of heparin (10 μg/mL) and 0.5% FBS at 37° C. for 48 hours. Capture agents were screened at 10, 1, 0.1, 0.01 and 0.001 μM and in duplicate. […] Subsequently, the reagent Calcein AM dye (20 μg/ml) was added for an additional 50 minute incubation period. Fluorescence intensity was read on SpectroFluor Plus plate reader.

[2] = target: T1, human VEGF165 binding to VEGFR2 (KDR) (Homo sapiens, UniProt P15692); test: competitive ELISA, inhibition of VEGF165 binding to VEGFR2; conditions: concentrations tested <50 μM
T1 construct: biotin (chemical labelling, Sulfo-NHS-LC-biotin); purchased R&D Systems (partner VEGFR2-Fc only)
T1 sequence (P15692 27-191 isoform P15692-4): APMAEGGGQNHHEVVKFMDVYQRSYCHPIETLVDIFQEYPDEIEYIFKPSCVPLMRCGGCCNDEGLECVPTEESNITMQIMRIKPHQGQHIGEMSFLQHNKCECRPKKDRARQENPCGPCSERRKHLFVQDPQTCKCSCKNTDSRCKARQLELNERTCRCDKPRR
Experimental: The solutions from the tubes were then transferred to the ELISA plates and incubated for 5 minutes. […] Using an excitation wavelength of 535 nm, fluorescent emission at 595 nm was recorded by Beckman Coulter DTX880 photometer (Brea, Calif.) as a function of capture agent concentration. The titration curves were fit using a four-parameter regression curve fitting program (Origin 8.5, Northampton, Mass.). Concentrations of peptides corresponding to the midpoint absorbance of the titration curve were calculated and used as the IC50 values.

[3] = plasma protein binding by equilibrium dialysis; type: in vitro ADME; conditions: 10 μM, 37° C. overnight
Experimental: Equilibrium dialysis techniques were used to separate the fraction of unbound test compound from the fraction that is bound to protein.
Assays were carried out in a 96-well format in a dialysis block constructed from Teflon. The protein matrix was spiked with the test compound at 10 μM (n=2) with a final DMSO concentration of 1% (v/v). The dialysate compartment was loaded with 150 μL phosphate buffer (pH 7.5) and the sample side was loaded with equal volume of the spiked protein matrix. The dialysis plate was then sealed and incubated at 37° C. overnight (18±2 hours). After the incubation, samples were taken from each compartment, diluted with the phosphate buffer followed by addition of acetonitrile and centrifugation. The supernatants were then used for HPLC-MS/MS analysis. A control sample (n=2) was prepared from the spiked protein matrix in the same manner as the assay samples (without dialysis). This control sample served as the basis for the recovery determination. Samples were analyzed by HPLC-MS/MS using selected reaction monitoring. The HPLC conditions consisted of a binary LC pump with autosampler, a C18 column (2×20 mm), and gradient elution. The percent bound to proteins and the recovery were calculated as follows:
[formula] […] The recovery determination served as an indicator of reliability of the calculated protein binding value.

[4] = plasma concentrations and pharmacokinetics of VEGF-PCC after a single IV or IP dose in mice, LC-MS/MS; type: in vivo, mouse; conditions: for Plasma concentration: individual animal; for C0: iv
Text: Test article: VEGF-PCC (IN-VT-1001 Triligand) (PCC monomer) Ac-[…]-Tz4-lfrew-Tz4-eeird (SEQ ID NO: 71). The underlined region inclusive of the Cys residues is cyclized by a disulfide bond, Ac=N-terminal acetylation, and Tz4=1,4-disubstituted 1,2,3-triazole.
The LC-MS/MS system for analysis was comprised of an Agilent 1200 high performance liquid chromatography (HPLC) and a 5500 Qtrap mass spectrometer (Applied Biosystems by Life Technologies, Carlsbad, Calif.).
Concentrations of VEGF-PCC in mouse plasma were determined using a non-validated LC MS/MS assay with Angiotensin I as the internal standard following a solid phase extraction method. Individual VEGF-PCC calibration and QC standards were prepared from the respective intermediate stock solutions by addition to naïve mouse plasma. The target working range of the calibration curve was 50 to 5,000 ng/mL in plasma and the target concentrations of the QC standards were 150 to 3,750 ng/mL in plasma for VEGF-PCC.
Mice received a single IV dose of VEGF-PCC at 1 mg/kg. A summary of the plasma concentrations for individual animals is shown in Table A. Plasma pharmacokinetic parameters are listed in Table 9.
Mice received a single IP dose of VEGF-PCC at 5 mg/kg. A summary of the plasma concentrations for individual animals is shown in Table B. Plasma pharmacokinetic parameters are listed in Table 9.

[5] = in vivo, mouse plasma, IP, 5 mg/kg
[6] = in vivo, mouse plasma, IV, 1 mg/kg

## Cc1cc(C)c(/C=C2\C(=O)Nc3ccccc32)[nH]1 [SU5416]
[1]
  IC50: 48 nM

## X-VEPNCDIHVMWEWECFERL-Az4 ({code X}-VEPNCDIHVMWEWECFERL-Az4; cysteine pairing not given here; reading uncertain) [anchor, reference compound]
[2]
  blocking of receptor binding at the concentrations tested: Neither the anchor nor Biligand 2 blocked receptor binding

## C=C(NC(=O)[C@@H]1CCCN1C(=O)[C@H](CCC(=O)O)NC(=O)[C@@H](C)C(C)C)C(=O)N[C@@H]1CSSCC(C(=O)N[C@@H](Cc2ccccc2)C(=O)NC(CCC(=O)O)C(=O)NC(CCCN)C(=O)N[C@@H](CC(C)C)C(=O)NC(CCCCn2cc(CC(N)C(=O)NC(Cc3ccccc3)C(=O)N[C@H](CO)C(=O)N[C@H](CCCNC(=N)N)C(=O)NC(CCCCN)C(=O)N[C@@H](C(=O)NC(CCC(=O)O)C(N)=O)C(C)O)nn2)C(=O)O)NC(=O)[C@H](CCC(=O)O)NC(=O)[C@H](Cc2c[nH]c3ccccc23)NC(=O)[C@H](CCC(=O)O)NC(=O)[C@H](Cc2c[nH]c3ccccc23)NC(=O)[C@H](CCSC)NC(=O)[C@H](C(C)C)NC(=O)[C@H](Cc2cnc[nH]2)NC(=O)C([C@@H](C)CC)NC(=O)[C@H](CC(=O)O)NC1=O (stereo partly shown) [Biligand 3]
[3]
  plasma protein binding: higher levels of plasma protein binding

## CC[C@@H](C)[C@@H](NC(=O)[C@@H](CCC(=O)O)NC(=O)[C@@H](CCC(=O)O)NC(=O)[C@H](N)Cc1cn(CCCC[C@H](NC(=O)[C@@H](Cc2c[nH]c3ccccc23)NC(=O)[C@@H](CCC(=O)O)NC(=O)[C@@H](CCCNC(=N)N)NC(=O)[C@@H](Cc2ccccc2)NC(=O)[C@@H](CC(C)C)NC(=O)[C@H](N)Cc2cn(CCCC[C@H](NC(=O)[C@H](CC(C)C)NC(=O)[C@H](CCCNC(=N)N)NC(=O)[C@H](CCC(=O)O)NC(=O)[C@H](Cc3ccccc3)NC(=O)[C@@H]3CSSC[C@H](NC(=O)[C@H](CC(N)=O)NC(=O)[C@@H]4CCCN4C(=O)[C@H](CCC(=O)O)NC(=O)[C@@H](NC(C)=O)C(C)C)C(=O)N[C@@H](CC(=O)O)C(=O)N[C@@H]([C@@H](C)CC)C(=O)N[C@@H](Cc4c[nH]cn4)C(=O)N[C@@H](C(C)C)C(=O)N[C@@H](CCSC)C(=O)N[C@@H](Cc4c[nH]c5ccccc45)C(=O)N[C@@H](CCC(=O)O)C(=O)N[C@@H](Cc4c[nH]c5ccccc45)C(=O)N[C@@H](CCC(=O)O)C(=O)N3)C(=O)O)nn2)C(=O)O)nn1)C(=O)N[C@H](CCCNC(=N)N)C(=O)N[C@H](CC(=O)O)C(N)=O [VEGF-PCC] (I: Ac-VEPNCDIHVMWEWECFERL[Lys(N3)]-OH / II: H-[dPra][dL][dF][dR][dE][dW][Lys(N3)]-OH / III: H-[dPra][dE][dE][dI][dR][dD]-NH2; disulfide I:5-I:15; triazole I:20-II:1, II:7-III:1)
[4]; [5]
  AUC(0-inf): 32200 ng·h/mL
  AUC(0-t): 31500 ng·h/mL
  Cmax: 19800 ng/mL
  Tmax: 30 min
[4]; [6]
  AUC(0-inf): 6490 ng·h/mL
  AUC(0-t): 6070 ng·h/mL
  clearance: 2.57 mL/min/kg
  half-life: 35.9 min
[4]; in vivo, mouse plasma, IV, 1 mg/kg, read-out: Vss
  Vd: 0.0967 L/kg
[4]; IP 5 mg/kg, 10 minutes postdose, listed as IN-VT-1001, 5 mg/kg
  Plasma concentration: 17500 ng/mL and 17000 ng/mL and 13400 ng/mL
[4]; IP 5 mg/kg, 30 minutes postdose, listed as IN-VT-1001, 5 mg/kg
  Plasma concentration: 19400 ng/mL and 20200 ng/mL and BLQ
[4]; IP 5 mg/kg, 60 minutes postdose, listed as IN-VT-1001, 5 mg/kg
  Plasma concentration: 10800 ng/mL and 23900 ng/mL and 11500 ng/mL
[4]; IP 5 mg/kg, 120 minutes postdose, listed as IN-VT-1001, 5 mg/kg
  Plasma concentration: BLQ and 4730 ng/mL and 3640 ng/mL
[4]; IP 5 mg/kg, 240 minutes postdose, listed as IN-VT-1001, 5 mg/kg
  Plasma concentration: 259 ng/mL and 807 ng/mL and BLQ
[4]; IP 5 mg/kg, 360 minutes postdose, listed as IN-VT-1001, 5 mg/kg
  Plasma concentration: 390 ng/mL and BLQ (2×)
[4]; IP 5 mg/kg, 480 minutes postdose
  Plasma concentration: BLQ
[4]; IP 5 mg/kg, 1440 minutes postdose
  Plasma concentration: BLQ
[4]; IV 1 mg/kg, 3 minutes postdose, listed as IN-VT-1001, 1 mg/kg
  Plasma concentration: 14200 ng/mL and 16200 ng/mL and 12000 ng/mL
[4]; IV 1 mg/kg, 10 minutes postdose, listed as IN-VT-1001, 1 mg/kg
  Plasma concentration: 7220 ng/mL and 7550 ng/mL and 6110 ng/mL
[4]; IV 1 mg/kg, 30 minutes postdose, listed as IN-VT-1001, 1 mg/kg
  Plasma concentration: 2170 ng/mL and 2210 ng/mL and 3420 ng/mL
[4]; IV 1 mg/kg, 60 minutes postdose, listed as IN-VT-1001, 1 mg/kg
  Plasma concentration: 1840 ng/mL and 2380 ng/mL and 1870 ng/mL
[4]; IV 1 mg/kg, 120 minutes postdose, listed as IN-VT-1001, 1 mg/kg
  Plasma concentration: 551 ng/mL and 400 ng/mL and 514 ng/mL
[4]; IV 1 mg/kg, 240 minutes postdose
  Plasma concentration: BLQ
[4]; IV 1 mg/kg, 360 minutes postdose
  Plasma concentration: BLQ
[4]; IV 1 mg/kg, 1440 minutes postdose
  Plasma concentration: BLQ
[4]; mean, IP 5 mg/kg, 480 minutes postdose
  Mean plasma concentration: 0.00 ng/mL
[4]; mean, IP 5 mg/kg, 1440 minutes postdose
  Mean plasma concentration: 0.00 ng/mL
[4]; mean, IV 1 mg/kg, 240 minutes postdose
  Mean plasma concentration: 0.00 ng/mL
[4]; mean, IV 1 mg/kg, 360 minutes postdose
  Mean plasma concentration: 0.00 ng/mL
[4]; mean, IV 1 mg/kg, 1440 minutes postdose
  Mean plasma concentration: 0.00 ng/mL
[4]; mouse plasma, IP, 5 mg/kg
  AUC % Ext: 2.04%
[4]; mouse plasma, IV, 1 mg/kg
  AUC % Ext: 6.49%
[4]; mouse, in vivo, ip, 5 mg/kg, mouse plasma, IP, 5 mg/kg, read-out: F (relative bioavailability)
  bioavailability: ~99%
[4]; mouse, in vivo, 1 mg/kg, assuming IV dose 1 mg/kg, body weight 33 g, blood volume approximately 1.7 mL, read-out: theoretical C0
  C0: ~19400 ng/mL
[4]; mouse, in vivo, 1 mg/kg, mouse plasma, IV, 1 mg/kg, read-out: C0 (back-calculated)
  C0: 19100 ng/mL
[4]; mouse, plasma, mean, IP 5 mg/kg, 10 minutes postdose, read-out: Mean plasma concentration
  level at 10 min: 16000 ng/mL
[4]; mouse, plasma, mean, IP 5 mg/kg, 30 minutes postdose, read-out: Mean plasma concentration
  level at 0.5 h: 13200 ng/mL
[4]; mouse, plasma, mean, IP 5 mg/kg, 60 minutes postdose, read-out: Mean plasma concentration
  level at 1 h: 15400 ng/mL
[4]; mouse, plasma, mean, IP 5 mg/kg, 120 minutes postdose, read-out: Mean plasma concentration
  level at 2 h: 2790 ng/mL
[4]; mouse, plasma, mean, IP 5 mg/kg, 240 minutes postdose, read-out: Mean plasma concentration
  level at 4 h: 355 ng/mL
[4]; mouse, plasma, mean, IP 5 mg/kg, 360 minutes postdose, read-out: Mean plasma concentration
  level at 6 h: 130 ng/mL
[4]; mouse, plasma, mean, IV 1 mg/kg, 3 minutes postdose, read-out: Mean plasma concentration
  level at 0.05 h: 14100 ng/mL
[4]; mouse, plasma, mean, IV 1 mg/kg, 10 minutes postdose, read-out: Mean plasma concentration
  level at 10 min: 6960 ng/mL
[4]; mouse, plasma, mean, IV 1 mg/kg, 30 minutes postdose, read-out: Mean plasma concentration
  level at 0.5 h: 2600 ng/mL
[4]; mouse, plasma, mean, IV 1 mg/kg, 60 minutes postdose, read-out: Mean plasma concentration
  level at 1 h: 2030 ng/mL
[4]; mouse, plasma, mean, IV 1 mg/kg, 120 minutes postdose, read-out: Mean plasma concentration
  level at 2 h: 488 ng/mL
